From PubChem BioAssay (NCI) come the findings set out here.

Values joined by “and” are separate entries in the source; they are usually repeats but may differ in a detail not shown here. Identical values can stand only once.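 Grown in 96-well plates, cells were treated for 48 hours with each compound at five concentrations. Insufficient inhibition: endpoint recorded as highest concentration tested. Here, GI50 denotes the concentration required for 50% inhibition of growth. TGI marks complete inhibition of growth.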

What all share (experiment): inhibition of tumour cell growth, NCI panel, 48 h
The subject of assay [1] is SW-620 colon.
Assay [2] deals with RXF 393 renal.
For assay [3], the system named is SK-OV-3 ovarian.
Assay [4] has as its system NCI-H226 lung.
Assay [5] deals with UACC-257 melanoma.
The test system of assay [6] is SK-MEL-28 melanoma.
Assay [7] has as its system HL-60(TB) leukemia.
For assay [8], the system named is NCI-H23 lung.
Assay [9] concerns UO-31 renal.
For assay [10], the system named is ACHN renal.

With `CCCC[C@H](NC(=O)[C@H]1CCCN1C)C(=O)N(C)[C@H](C[C@@H](OC(C)=O)c1nc(C(=O)N[C@@H](Cc2ccccc2)C[C@H](C)C(=O)OCC)cs1)C(C)C`, the GI50 in assay [1] was 0.0106 µM; in [2], 0.00745 µM; in [3], 0.0969 µM; in [4], 0.531 µM; in assay [5] it was 7.81 µM; in assay [6], 0.029 µM. Moreover, the GI50 in assay [7] was 0.0058 µM; in [8] it was 0.0594 µM; in [9], 0.209 µM. Moreover, the TGI in [1] is > 33.3 µM; in [2], 11.3 µM; in assay [3], > 33.3 µM; in [4], 16.4 µM; in [5] it was > 33.3 µM; in assay [6], 17.4 µM. Moreover, the TGI in [7] was 0.0253 µM; in [8], > 33.3 µM; in assay [9], > 33.3 µM.
On to `Cc1c(C(=O)/C=C/c2csc3ccccc23)[n+](=O)c2ccccc2n1[O-]`, for which the GI50 in assay [1] is 1.49 µM; in assay [2], 1.91 µM; in [3] it was 1.79 µM; in assay [10], 1.48 µM; in assay [4], 1.82 µM; in [5] it was 1.81 µM. Further, the GI50 was 2.07 µM in assay [6], 1.78 µM in assay [7], 1.61 µM in [8] and 1.24 µM in assay [9]. The TGI in assay [1] amounted to 2.81 µM; in assay [2], 3.58 µM; in assay [3], 4.95 µM; in assay [10], 2.8 µM; in assay [4] it was 4.94 µM; in assay [5], 3.73 µM. Also, the TGI in [6] was determined as 4.81 µM; in assay [7], 5.19 µM; in assay [8] it was 3.49 µM; in assay [9], 2.56 µM.
For the compound `COc1cc(Cl)cc(-c2nn(C(=O)NCCN3CCOCC3)cc2-c2ccncc2)c1`, the GI50 in assay [1] is 4.28 µM; in assay [2], 2.67 µM; in [3], 3.75 µM; in assay [10], 5.52 µM; in [4], 7.2 µM; in [5] it was 18.4 µM. Moreover, the GI50 is 4.6 µM in assay [6], 3.22 µM in assay [7], 11.5 µM in assay [8] and 3.85 µM in assay [9]. The TGI in assay [1] was 32.7 µM; in assay [2], 19.9 µM; in assay [3], 19.7 µM; in assay [10], 90.2 µM; in [4], 48.9 µM; in assay [5], > 100 µM. Further, the TGI in assay [6] is 66 µM; in [7] it was 95.1 µM; in assay [8], > 100 µM; in [9] it was 64.6 µM.
As to `CCCN=Cc1cc(Cc2ccc(O)c(C=NCCC)c2)ccc1O`, the TGI was determined as 15.9 µM in assay [1]; 37.7 µM in [2]; 82.4 µM in assay [3]; 53.4 µM in assay [10]; 51.2 µM in [4]; 60.8 µM in assay [5]. In addition, the TGI came to 5 µM in assay [7], 26.2 µM in assay [8] and 36.3 µM in [9].
Regarding `CN1CCN(CCc2cccc(C(=O)c3cnn(-c4ccc(F)cc4)c3N)c2)CC1`, the GI50 in assay [1], in [2], in assay [3], in assay [10], in assay [4] and in [5] was > 25 µM throughout. The GI50 in [6], in assay [7], in [8] and in assay [9] was > 25 µM in each case. Further, the TGI in assay [1], in assay [2], in assay [3], in [10], in assay [4] and in assay [5] was > 25 µM each time. In addition, the TGI in [6], in [7], in assay [8] and in [9] was > 25 µM each time.
Consider `CCOC(=O)C1=C(C)N(Cc2ccccc2)C(C)=C(C(=O)OCC)C1c1ccccc1O`, for which the TGI in [1] is > 100 µM; in assay [2] it was 60.2 µM; in [3], > 100 µM; in assay [10], > 100 µM; in assay [4], 80.4 µM; in assay [5], 70.7 µM. Further, the TGI in [6] was > 100 µM; in [7], 58.6 µM; in [8] it was 57.7 µM; in [9] it was > 100 µM.
As for `Cc1cc(N(CCC#N)S(=O)(=O)c2ccccc2)ccc1/C=C1N=C(/C=C/c2ccccc2)OC\1=O`, the TGI in [1], in [2], in assay [3], in [10], in [4] and in assay [5] was > 100 µM in each case. The TGI in assay [6], in [7], in assay [8] and in assay [9] was > 100 µM each time.
`CCCCCCCCCCCCOC(=S)NCCCC`: the TGI in [1] worked out at 35.5 µM; in [2], 56.8 µM; in [3] it was 71.1 µM; in assay [10], 50.5 µM; in [4], 45.1 µM; in assay [5], 44 µM. Also, the TGI was 90.9 µM in assay [6], 43.1 µM in [7], 57.9 µM in assay [8] and 20.1 µM in [9].
Turning to `COCCN1C2=CCCCC2=Nc2c1nc(N)[nH]c2=O`, the TGI in assay [2], in [3], in assay [10], in [4], in [5] and in [6] was > 100 µM each time. The TGI in assay [7], in assay [8] and in assay [9] was > 100 µM in each case.
Turning to `COc1ccc(N2C(C)=C(C#N)C34C(=O)N(c5ccccc5)C(=O)C3=C(O)C=CC24O)cc1` (configuration not stated), the GI50 in assay [1] was 10.3 µM; in [2], 3.15 µM; in assay [3], 36.2 µM; in assay [10], 18.2 µM; in [4], 13.5 µM; in assay [5], 30.1 µM. Further, the GI50 in [6] was 12 µM; in [7], 15.5 µM; in assay [8] it was 8.86 µM; in assay [9] it was 13.9 µM. Also, the TGI in assay [1] is 24.6 µM; in [2], 14.7 µM; in [3], > 100 µM; in assay [10] it was 45.6 µM; in [4], 35.1 µM; in assay [5], > 100 µM. In addition, the TGI came to 30.1 µM in [6], 65.9 µM in [7], 58 µM in assay [8] and 55.8 µM in assay [9].
Consider `CNC(=O)c1cncc(/C=C/c2ccccc2C)c1`, for which the GI50 in assay [1], in assay [2], in assay [3], in assay [10], in [4] and in assay [5] was > 25 µM each time. Further, the GI50 in [6], in assay [7], in assay [8] and in [9] was > 25 µM each time. The TGI in assay [1], in [2], in [3], in assay [10], in assay [4] and in [5] was > 25 µM each time. Further, the TGI in assay [6], in assay [7], in [8] and in [9] was > 25 µM each time.
With `COc1cc(C2c3cc4c(cc3[C@@H](Nc3ccc(C#N)cc3)C3COC(=O)[C@H]23)OCO4)cc(OC)c1O` (some centres not stated), the GI50 in [1] is 0.781 µM and 0.263 µM; in [2], 2.53 µM; in [3] it was 3.29 µM and 1.34 µM; in assay [10], 0.128 µM; in assay [4] it was 0.239 µM and 0.242 µM; in assay [6], 2.89 µM. The GI50 is 0.753 µM and 0.532 µM in [8]; 0.26 µM and 0.968 µM in assay [9]. Also, the TGI in assay [1] is 50 µM and 75 µM and 11.4 µM; in assay [2] it was 4.96 µM and 9.01 µM; in assay [3], 48.8 µM and 11.3 µM and > 100 µM; in [10], 1.24 µM and 2.41 µM; in assay [4], 3.46 µM and 1.43 µM and 2.06 µM; in assay [5] it was 33.3 µM. The TGI is 28.2 µM and > 100 µM in assay [6]; 1.12 µM and 0.702 µM in assay [7]; 2.53 µM and 3.67 µM and 4.36 µM in assay [8]; 7.14 µM and 5.42 µM and 2.64 µM in assay [9].
For the compound `COc1ccc(-c2ccc(/C=N/n3c(COc4ccc(Cl)cc4Cl)n[nH]c3=S)o2)c([N+](=O)[O-])c1`, the GI50 in [1] is 30.7 µM; in [2], 16.6 µM; in [3], 23.6 µM; in [10], 45.3 µM; in assay [4], 2.52 µM; in [6] it was 30.3 µM. Moreover, the GI50 in assay [7] was 21.5 µM; in assay [8], 16.1 µM; in assay [9] it was 43.9 µM. Besides, the TGI in assay [1] is 97.6 µM; in assay [2], 40.2 µM; in assay [3] it was > 100 µM; in assay [10], > 100 µM; in assay [4], 11.9 µM; in [6] it was 62.5 µM. The TGI in assay [7] was 51.2 µM; in [8], 33.2 µM; in assay [9] it was > 100 µM.
In the case of `Cc1[c-]onc1C.Cc1[c-]onc1C.[Ag].[Ag].[NH-]S(=O)(=O)c1ccc(N=Nc2cc(N=Nc3ccc(S([NH-])(=O)=O)cc3)c3c(NC(=O)C(Cl)Cl)cccc3c2OC(=O)C(Cl)Cl)cc1`, the GI50 in [1] is 3.54 µM; in assay [2] it was 6.47 µM; in assay [3], 9.66 µM; in assay [10] it was 5.13 µM; in assay [4], 12.6 µM; in assay [6], 8.18 µM. The GI50 in assay [7] was 11 µM; in [8], 8.3 µM; in assay [9], 6.06 µM. Moreover, the TGI in [1] is 12.8 µM; in assay [2], 15.6 µM; in assay [3], 18.5 µM; in [10] it was 11.9 µM; in [4], > 50 µM; in assay [6], 17 µM. In addition, the TGI in assay [7] amounted to 26.7 µM; in assay [8] it was 22.8 µM; in assay [9], 12.8 µM.
Regarding `Nc1cc2cccc[n+]2c2cc(Cl)ccc12`, the GI50 in assay [1] is 26.2 µM; in assay [2], 87.9 µM; in assay [10] it was 34.6 µM; in assay [4], 13.5 µM; in [5] it was 3.75 µM; in assay [6], 14.9 µM. The results for the GI50 in assay [7], in assay [8] and in assay [9] were 16.3 µM, 13.2 µM and 43.6 µM, respectively. Besides, the TGI in [4] is 59.5 µM; in assay [5] it was 20.2 µM; in assay [6], 37.3 µM; in assay [8], 53.6 µM.
Turning to `O=c1c2c([nH]c3cc4c(cc13)OCO4)-c1ccccc1CC2`, the TGI in [1], in assay [2], in assay [10], in assay [4], in assay [5] and in [6] was > 100 µM each time. Moreover, the TGI in assay [7], in [8] and in [9] was > 100 µM throughout.
Consider `COc1cc2c(cc1OC)C(N(C)C)C(c1ccccc1)=C2Cl` (configuration not stated), for which the TGI was determined as 29.8 µM in [1]; 29.3 µM in assay [2]; 45.9 µM in assay [3]; 56.4 µM in assay [4]; 40.5 µM in assay [5]; 36 µM in assay [6]. Also, the results for the TGI in assay [7], in [8] and in [9] were 65.8 µM, 32.4 µM and 32 µM, respectively.
On to `C=CCC1([C@H](C)[C@@H](OC(C)=O)c2cc(OC)c(OC)c(OC)c2)C[C@@H](OC)CCC1=O` (some centres not stated), for which the TGI is 38.6 µM in [1]; 26.6 µM in assay [2]; > 100 µM in assay [3]; 41.4 µM in [10]; 44.2 µM in [4]; 52.4 µM in assay [6]. Further, the figures for the TGI in assay [7] and in assay [8] were 45 µM and 22.8 µM, respectively.
For `CNC(=O)OCc1nc(SC2CCCCO2)n(C)c1COC(=O)NC` (configuration not stated), the TGI in [1], in assay [2], in [3], in [4], in assay [5] and in assay [6] was > 100 µM each time. Also, the TGI in [7], in assay [8] and in assay [9] was > 100 µM each time.
Consider `O=C(Cn1ccc(=O)[nH]c1=O)Nc1ccc(C(=O)O)c(O)c1`, for which the TGI in assay [1], in [2], in assay [10], in assay [4], in [5] and in assay [6] was > 100 µM throughout. In addition, the TGI in assay [7], in assay [8] and in assay [9] was > 100 µM throughout.
